Experimental data reported in patent publication US6627664B2, “Perylenequinones for use as sonosensitizers” (Altachem Pharma Ltd., priority 2001, dated 2003).
Read-outs that look alike come from different tables or passages of the source. Marks after values point to notes of the source that are not given here.

What was measured:
[1] = test system: cells; conditions: for Photopotentiation Factor: LD50 dark divided by LD50 light; for LD50 Light: light dose not fixed, 0.75-1.0 J/cm2 of 630 nm light
Text: As used herein, “photopotentiation factor” refers to the property of the compound(s) to exert light- or sound-mediated toxicity in excess of its (their) inherent unactivated toxicity. […] Where the term “LD50” has been used above, the term “IC50” may be substituted, to address the bioassays that concern metabolic activity rather than the endpoint of lethality, loss of reproductive capability, or clonogenic death. The relative photoactivation efficiency of a compound may also be determined using a clonogenic assay, an assay that is well known to those skilled in the art.
In accordance with the present invention, a desirable PQP derivative is one that is non-toxic (or of low toxicity) at high drug concentrations without activation, i.e., without light (also referred to as “dark”), and/or without sound, and is toxic at low concentrations when light of the appropriate wavelength, or sound of the appropriate frequency, is applied. As is recognized by those skilled in the art, the most desirable compounds are those that provide a wide range of non-toxic doses in an unactivated state, as this characteristic provides an increased safety factor for the patient.

[2] = Singlet oxygen (1O2) yield; type: physicochemical
[3] = Light absorption properties (red spectral region, 630 nm); type: physicochemical; conditions: for A630: absorbance at 630 nm
[4] = Pharmacokinetics / tissue uptake of 14C-HB in tumor-bearing mice; type: in vivo, Balb/c mice
Text: The excellent fluorescence properties of the hypocrellins and derivatives provide a valuable tool to monitor intracellular uptake and distribution kinetics by confocal laser scanning microscopy (CLSM). Each drug has unique properties of uptake and distribution (Miller et al 1995 a, b). The rate cells take up drug in humans […] can be determined using similar protocols as Liu et al 1995 and Miller et al., 1995 a or b). In vivo, the ideal time between i.v. injection or administration of the drug and light administration is preferably when tumor concentration of the photodynamic agent is optimal with respect to normal tissues, typically up to about 24 hours, but as long as 48 hours or more (Table 2).
Pharmacokinetics of ^14C-HB in Balb/c mice bearing the EMT6/Ed tumor in one flank. […] With respect to skin, the optimal therapeutic ratio for tumor occurs 2 hours following drug administration.

Substance: 2-(N,N-diethyl-amino) ethylamine-HB [HBDD-R2]
- Photopotentiation Factor [1]: >3.3
- LD50 Light [1]: 7.5 µM
- ^1O2 Yield [2]: 0.36

Substance: 2-(N,N-dimethyl-amino) propylamine-HB [HBDP-R1]
- toxicity (in words) [1]: average or lower than average toxicity
- Photopotentiation Factor [1]: >16.6-50
- LD50 Light [1]: 0.5 to 1.5 µM
- LD50 Dark ([1]; without light): >25 µM
- ^1O2 Yield [2]: 0.42

Substance: 2-morpholino-ethyl-aminated-HB [HBAM-R1]
- LD50 Dark [1]: >25 µM
- Photopotentiation Factor [1]: >6.25
- LD50 Light [1]: 4 µM
- Abs. Peak in red Spectral region [3]: 658 nm
- ^1O2 Yield [2]: 0.70

Substance: Cystamine-HB [HBAC-R1]
- Photopotentiation Factor [1]: 12.5
- LD50 Light [1]: 1 µM
- LD50 Dark ([1]; without light): 12.5 µM
- Abs. Peak in red Spectral region [3]: 646 nm
- Extinction Coefficient (× 10^−3) (630 nm) [3]: 3.88 × 10^−3
- A630 [3]: 0.388
- Amax/solvent ([3]; solvent CHCl3): 0.417/CHCl3
- ^1O2 Yield [2]: 0.40

Substance: Cystamine-HB [HBAC-R2]
- Photopotentiation Factor [1]: 2.5
- LD50 Light [1]: 5 µM
- LD50 Dark ([1]; without light): 12.5 µM
- Abs. Peak in red Spectral region [3]: 600 nm
- Extinction Coefficient (× 10^−3) (630 nm) [3]: 2.44 × 10^−3
- A630 [3]: 0.244
- Amax/solvent ([3]; solvent DMSO): 0.337/DMSO
- ^1O2 Yield [2]: 0.31

Substance: Deacetylated-HA [DAHA]
- LD50 Dark [1]: >25 µM
- LD50 Light [1]: >5 µM
- Abs. Peak in red Spectral region [3]: 622 nm
- Extinction Coefficient (× 10^−3) (630 nm) [3]: 5.70 × 10^−3
- A630 [3]: 0.570
- ^1O2 Yield [2]: 0.51

Substance: Ethanolamine-HB [HBEA-R2]
- Photopotentiation Factor [1]: 3.3
- LD50 Light [1]: 7.5 µM
- LD50 Dark ([1]; without light): 25 µM
- ^1O2 Yield [2]: 0.70

Substance: Ethylenediamine-HB [HBED-R2]
- Photopotentiation Factor [1]: 5-8.3
- LD50 Light [1]: 3 to 5 µM

Substance: HA-Mg^++(Ac2)
- LD50 Dark [1]: >25 µM
- LD50 Light [1]: >5 µM
- Abs. Peak in red Spectral region [3]: 616 nm
- Extinction Coefficient (× 10^−3) (630 nm) [3]: 4.47 × 10^−3
- A630 [3]: 0.447
- Amax/solvent ([3]; solvent EtOH): 0.958/EtOH
- ^1O2 Yield [2]: 0.71

Substance: HB-Mg^++
- LD50 Dark [1]: 10 µM
- Photopotentiation Factor [1]: 10
- LD50 Light [1]: 1 µM
- Abs. Peak in red Spectral region [3]: 622 nm
- Extinction Coefficient (× 10^−3) (630 nm) [3]: 5.27 × 10^−3
- A630 [3]: 0.527
- Amax/solvent ([3]; solvent EtOH): 0.604/EtOH
- ^1O2 Yield [2]: 0.53

Substance: Hypocrellin A [HA, reference compound]
- Photopotentiation Factor [1]: 3-5
- LD50 Light [1]: 3 to 5 µM
- LD50 Dark ([1]; without light): 15 µM
- Abs. Peak in red Spectral region [3]: 658* nm
- Extinction Coefficient (× 10^−3) (630 nm) [3]: 0.86 × 10^−3
- A630 [3]: 0.086
- Amax/solvent ([3]; solvent DMF): 0.093/DMF
- ^1O2 Yield [2]: 0.84

Substance: Methylamine-HB [HBMA-IV]
- Photopotentiation Factor [1]: 8.5
- LD50 Light [1]: 1 µM

Substance: ^14C-Hypocrellin B
- clearance from blood ([4]; Balb/c mice bearing EMT6/Ed tumor): rapid clearance
- Tissue Uptake of ^14C-Hypocrellin B ([4]; Bone, 0 Hours): 19,825 ± 2,300 dpm/g
- Tissue Uptake of ^14C-Hypocrellin B ([4]; Bone, 2 Hours): 3,955 ± 2,070 dpm/g
- Tissue Uptake of ^14C-Hypocrellin B ([4]; Bone, 24 Hours): 660 ± 215 dpm/g
- Tissue Uptake of ^14C-Hypocrellin B ([4]; Bone, 48 Hours): 1,125 ± 310 dpm/g
- Tissue Uptake of ^14C-Hypocrellin B ([4]; Brain, 0 Hours): 17,560 ± 560 dpm/g
- Tissue Uptake of ^14C-Hypocrellin B ([4]; Brain, 2 Hours): 3,855 ± 170 dpm/g
- Tissue Uptake of ^14C-Hypocrellin B ([4]; Brain, 24 Hours): 2,840 ± 275 dpm/g
- Tissue Uptake of ^14C-Hypocrellin B ([4]; Brain, 48 Hours): 845 ± 90 dpm/g
- Tissue Uptake of ^14C-Hypocrellin B ([4]; Fat, 0 Hours): 20,550 ± 715 dpm/g
- Tissue Uptake of ^14C-Hypocrellin B ([4]; Fat, 2 Hours): 38,570 ± 5,610 dpm/g
- Tissue Uptake of ^14C-Hypocrellin B ([4]; Fat, 24 Hours): 19,550 ± 2,210 dpm/g
- Tissue Uptake of ^14C-Hypocrellin B ([4]; Fat, 48 Hours): 19,335 ± 2,335 dpm/g
- Tissue Uptake of ^14C-Hypocrellin B ([4]; Heart, 0 Hours): 113,920 ± 3,365 dpm/g
- Tissue Uptake of ^14C-Hypocrellin B ([4]; Heart, 2 Hours): 5,135 ± 910 dpm/g
- Tissue Uptake of ^14C-Hypocrellin B ([4]; Heart, 24 Hours): 7,835 ± 1,810 dpm/g
- Tissue Uptake of ^14C-Hypocrellin B ([4]; Heart, 48 Hours): 2,325 ± 245 dpm/g
- Tissue Uptake of ^14C-Hypocrellin B ([4]; Ileum, 0 Hours): 45,400 ± 3,600 dpm/g
- Tissue Uptake of ^14C-Hypocrellin B ([4]; Ileum, 2 Hours): 20,280 ± 2,850 dpm/g
- Tissue Uptake of ^14C-Hypocrellin B ([4]; Ileum, 24 Hours): 5,800 ± 645 dpm/g
- Tissue Uptake of ^14C-Hypocrellin B ([4]; Ileum, 48 Hours): 2,840 ± 595 dpm/g
- Tissue Uptake of ^14C-Hypocrellin B ([4]; Kidney, 0 Hours): 67,344 ± 950 dpm/g
- Tissue Uptake of ^14C-Hypocrellin B ([4]; Kidney, 2 Hours): 20,855 ± 3,955 dpm/g
- Tissue Uptake of ^14C-Hypocrellin B ([4]; Kidney, 24 Hours): 12,050 ± 1,845 dpm/g
- Tissue Uptake of ^14C-Hypocrellin B ([4]; Kidney, 48 Hours): 4,535 ± 765 dpm/g
- Tissue Uptake of ^14C-Hypocrellin B ([4]; Liver, 0 Hours): 394,190 ± 7,540 dpm/g
- Tissue Uptake of ^14C-Hypocrellin B ([4]; Liver, 2 Hours): 24,620 ± 4,885 dpm/g
- Tissue Uptake of ^14C-Hypocrellin B ([4]; Liver, 24 Hours): 22,495 ± 4,440 dpm/g
- Tissue Uptake of ^14C-Hypocrellin B ([4]; Liver, 48 Hours): 9,215 ± 720 dpm/g
- Tissue Uptake of ^14C-Hypocrellin B ([4]; Lung, 0 Hours): 651,100 ± 42,668 dpm/g
- Tissue Uptake of ^14C-Hypocrellin B ([4]; Lung, 2 Hours): 8,580 ± 655 dpm/g
- Tissue Uptake of ^14C-Hypocrellin B ([4]; Lung, 24 Hours): 3870 ± 525 dpm/g
- Tissue Uptake of ^14C-Hypocrellin B ([4]; Lung, 48 Hours): 2,975 ± 360 dpm/g
- Tissue Uptake of ^14C-Hypocrellin B ([4]; Muscle, 0 Hours): 13,665 ± 600 dpm/g
- Tissue Uptake of ^14C-Hypocrellin B ([4]; Muscle, 2 Hours): 4,050 ± 940 dpm/g
- Tissue Uptake of ^14C-Hypocrellin B ([4]; Muscle, 24 Hours): 2,875 ± 560 dpm/g
- Tissue Uptake of ^14C-Hypocrellin B ([4]; Muscle, 48 Hours): 1,015 ± 205 dpm/g
- Tissue Uptake of ^14C-Hypocrellin B ([4]; Pancreas, 0 Hours): 32,010 ± 2,165 dpm/g
- Tissue Uptake of ^14C-Hypocrellin B ([4]; Pancreas, 2 Hours): 13,185 ± 12,055 dpm/g
- Tissue Uptake of ^14C-Hypocrellin B ([4]; Pancreas, 24 Hours): 32,390 ± 11,840 dpm/g
- Tissue Uptake of ^14C-Hypocrellin B ([4]; Pancreas, 48 Hours): 16,915 ± 3,845 dpm/g
- Tissue Uptake of ^14C-Hypocrellin B ([4]; Serum, 0 Hours): 69,975 ± 1,925 dpm/g
- Tissue Uptake of ^14C-Hypocrellin B ([4]; Serum, 2 Hours): 1,655 ± 170 dpm/g
- Tissue Uptake of ^14C-Hypocrellin B ([4]; Serum, 24 Hours): 1,020 ± 160 dpm/g
- Tissue Uptake of ^14C-Hypocrellin B ([4]; Serum, 48 Hours): 700 ± 240 dpm/g
- Tissue Uptake of ^14C-Hypocrellin B ([4]; Skin, 0 Hours): 14,970 ± 74 dpm/g
- Tissue Uptake of ^14C-Hypocrellin B ([4]; Skin, 2 Hours): 3,130 ± 221 dpm/g
- Tissue Uptake of ^14C-Hypocrellin B ([4]; Skin, 24 Hours): 2,700 ± 170 dpm/g
- Tissue Uptake of ^14C-Hypocrellin B ([4]; Skin, 48 Hours): 1,590 ± 250 dpm/g
- Tissue Uptake of ^14C-Hypocrellin B ([4]; Spleen, 0 Hours): 151,870 ± 9,395 dpm/g
- Tissue Uptake of ^14C-Hypocrellin B ([4]; Spleen, 2 Hours): 58,900 ± 4,205 dpm/g
- Tissue Uptake of ^14C-Hypocrellin B ([4]; Spleen, 24 Hours): 14,970 ± 3,215 dpm/g
- Tissue Uptake of ^14C-Hypocrellin B ([4]; Spleen, 48 Hours): 26,700 ± 11,105 dpm/g
- Tissue Uptake of ^14C-Hypocrellin B ([4]; Stomach, 0 Hours): 28,280 ± 145 dpm/g
- Tissue Uptake of ^14C-Hypocrellin B ([4]; Stomach, 2 Hours): 21,630 ± 3,345 dpm/g
- Tissue Uptake of ^14C-Hypocrellin B ([4]; Stomach, 24 Hours): 34,385 ± 8,795 dpm/g
- Tissue Uptake of ^14C-Hypocrellin B ([4]; Stomach, 48 Hours): 12,460 ± 975 dpm/g
- Tissue Uptake of ^14C-Hypocrellin B ([4]; Tumor, 0 Hours): 7,885 ± 270 dpm/g
- Tissue Uptake of ^14C-Hypocrellin B ([4]; Tumor, 2 Hours): 3,775 ± 400 dpm/g
- Tissue Uptake of ^14C-Hypocrellin B ([4]; Tumor, 24 Hours): 2,950 ± 80 dpm/g
- Tissue Uptake of ^14C-Hypocrellin B ([4]; Tumor, 48 Hours): 2,165 ± 470 dpm/g
- time of optimal therapeutic ratio for tumor with respect to skin ([4]; following drug administration): 2 h
